What was measured:
[1] = Example 7 Part II: food effect on single 200 mg oral dose pharmacokinetics (Table 3 formulation); format: in vivo, human; details: 200 mg single oral, young male
Procedure: (§1) In the following examples and elsewhere herein, terms are as defined below. The pharmacokinetic parameters were derived by non-compartmental analysis using WinNonlin° (Pharsight Corporation, Mountain View, Calif.) or SAS® for Windows® (SAS Institute Inc., Cary, N.C.).
Following single oral dosing of 200 mg 3-APS (modified-release coated formulation as described in Table 3 above) to young male subjects (aged between 18 and 45 years) under fasted and fed (high fat) conditions, maximum plasma concentrations of 3-APS are attained at 5 and 13.5 h post-dose under fasted and fed conditions, respectively (Table 9A).

[2] = Example 13: single 150 mg (3 × 50 mg) oral dose pharmacokinetics in healthy elderly male volunteers, fasting and fed; format: in vivo, human; details: 150 mg (3 × 50 mg) single oral, Fasting Conditions, mean
Procedure: as §1
A single dose study of 3-APS Modified-Release Coated Tablets (of Table 5 above) in healthy elderly male volunteers following a 150 mg oral dose administration under fed conditions is conducted. For the 150 mg dose, three 50 mg tables are administered.

[3] = Example 8 Part I: multiple rising oral dose pharmacokinetics of NC-758; format: in vivo; details: human, plasma, fasted; for AUC(0-inf) / AUC(0-t) / Cmax: mean; for AUC(0-t): read-out: AUC0-12h; for Tmax: median
Procedure: as §1
For doses at multiples of 100 mg, multiple 100 mg tables are administered. […] In Part I, 3-APS is administered as a single dose on Days 1 and 12 and on Days 2-11, twice daily at 12 hour intervals.

[4] = molecular target: T1, Aβ42 (Homo sapiens, UniProt P05067); experiment: Example 11 additional tests: CSF Aβ42 levels and Aβ42/Aβ40 ratio in treated patients; format: in vivo
T1 construct: from tissue; host or cells: cerebrospinal fluid of AD patients treated with 3-APS

[5] = Example 9 Part II: food effect on single 100 mg oral dose pharmacokinetics in elderly (Table 5 formulation); format: in vivo; details: both sexes, human, plasma; 100 mg single oral, elderly male and female, Fasting Arm; median
Procedure: as §1
Following single oral dosing of 100 mg 3-APS (modified-release coated formulation modified-release enteric-coated tablet as described in Table 5 above) to elderly (55 years or older) male and female subjects under fasted and fed (high fat) conditions, maximum plasma concentrations of 3-APS are attained at 5 and 10.5 h post-dose under fasted and fed conditions, respectively (Table 12A below and FIG. 5 showing the Mean Plasma Concentration-Time Profiles of 3-APS under Fasted and Fed Conditions following Single Oral Administration of 100 mg to Elderly Male and Female Subjects).

[6] = Example 10: 3-APS concentration in cerebrospinal fluid (CSF) of AD patients; format: in vivo, human; details: additional tests, treated patients
Description: (Patients having a CSF level below the lower limit of quantitation of the assay are considered as zero.) CSF concentrations of 3-APS on Day 2 of Week 12 after twice daily oral administration for 12 weeks are as follows: […]

[7] = Example 9 Part I: single oral dose pharmacokinetics of NC-758-1 (Table 5 tablet) in healthy elderly; format: in vivo; details: both sexes, human, plasma, elderly male and female, fasted; for AUC(0-inf) / AUC(0-t) / Cmax: mean; for Tmax: median
Description: as §1
Part I—The pharmacokinetic profile and the effect of food on single oral doses of 3-APS free acid (modified-release enteric-coated tablet as described in Table 5 above, hereinafter “NC-758-1“) in healthy male and female elderly (≧55 years) volunteers. For doses at multiples of 50 mg, multiple 50 mg tables are administered. The test is an open label, three-period crossover study to assess the pharmacokinetic profile of 3 single oral doses of NC-758-1 in healthy elderly (≧55 years) male and female subjects. The blood samples are collected during 24 h following dosing. Plasma concentrations of 3-APS are determined using a validated LC-MS/MS method.

[8] = Example 7 Part I: single rising oral dose pharmacokinetics of NC-758 (Table 3 tablet), plasma 3-APS by LC-MS/MS; format: in vivo, human; details: for AUC(0-inf) / Tmax / Cmax / AUC(0-t): human, plasma, fasted; for AUC(0-inf) / Cmax / AUC(0-t): mean; for Tmax: median; for Cmax / AUC(0-t): male, po; for AUC(0-t): read-out: AUC0-Tlast
Description: as §1
Part I—The pharmacokinetic profile and the effect of food on single rising oral doses of 3-APS free acid (modified-release enteric-coated tablet, as described in Table 3 above, hereinafter “NC-758”) in healthy male young (18-45 years) volunteers is determined. For doses at multiples of 100 mg, multiple 100 mg tables are administered. The pharmacokinetics of a single oral dose of NC-758 is also determined in a group of healthy male elderly (≧55 years old) volunteers. The test is a randomized, double-blind, placebo-controlled study to assess the pharmacokinetic profile of 4 single rising oral doses of NC-758 in healthy young (18-45 years) male subjects. Blood samples are collected during 24 h following dosing. Plasma concentrations of 3-APS are determined using a validated LC-MS/MS method.

[9] = dog, in vivo
Procedure: (§2) Furthermore, the non-hygroscopic nature of the acid form makes it desirable as active pharmaceutical ingredient. To further protect against any possible gastrointestinal intolerance that could result from the acid form, the tablets are enteric-coated and a modified-release agent is added to control any rapid release of the drug in the stomach and the intestine, respectively.

[10] = Gastrointestinal tolerability of sodium salt capsules (certain studies); format: in vivo; details: solid dosage form (capsules)
Procedure: as §2

[11] = both sexes, 200 mg, 200 mg BID, Day 1, elderly (≧55 years) male and female
[12] = both sexes, 200 mg, 200 mg BID, Day 12, elderly (≧55 years) male and female
[13] = male, 100 mg, 100 mg BID, Day 1, young (18-45 years) male
[14] = male, 100 mg, 100 mg BID, Day 12, young (18-45 years) male
[15] = male, 200 mg, 200 mg BID, Day 1, young (18-45 years) male
[16] = male, 200 mg, 200 mg BID, Day 12, young (18-45 years) male
[17] = 100 mg single oral, young (18-45 years) male
[18] = 200 mg single oral, young (18-45 years) male
[19] = 300 mg single oral, young (18-45 years) male
[20] = 100 mg, 100 mg single oral, young (18-45 years) male
[21] = 200 mg, 200 mg single oral, elderly (>55 years) male
[22] = 200 mg, 200 mg single oral, young (18-45 years) male
[23] = 300 mg, 300 mg single oral, young (18-45 years) male
[24] = 400 mg, 400 mg single oral, young (18-45 years) male

T1 sequence (P05067 672-713 limits assumed): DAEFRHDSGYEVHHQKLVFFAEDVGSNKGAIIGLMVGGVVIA

With `NCCCS(=O)(=O)O` [3-APS, 3-amino-1-propanesulfonic acid] the Cmax ([1]; Fed Arm (high fat), mean) was 631 ng/mL, the AUC(0-t) ([1]; human, plasma, Fasting Arm, mean, read-out: AUC0-Tlast) was 2200 ng·h/mL and the Tmax ([1]; human, plasma, Fasting Arm, median) was 5 h. For the same compound, the AUC(0-inf) ([1]; human, plasma, Fed Arm (high fat), mean) was 4500 ng·h/mL, the AUC0-Tlast [2] was 3211 ng·h/mL and the “AUC∞” value [2] was 3284 ng·h/mL. For the same compound, the AUC(0-inf) ([3]; both sexes, 200 mg BID, Day 1, elderly (≧55 years) male and female) was 5500 ng·h/mL, the AUC(0-t) ([3]; both sexes, 200 mg BID, Day 12, elderly (≧55 years) male and female) was 6290 ng·h/mL and the Cmax [3, 11] was 897 ng/mL. For the same compound, the AUC(0-t) [3, 11] was 5020 ng·h/mL, the Tmax [3, 11] was 6 h and the Cmax [3, 12] was 880 ng/mL. The Tmax [3, 12] was 5 h, the AUC(0-inf) ([3]; 100 mg BID, Day 1, young (18-45 years) male) was 1020 ng·h/mL and the AUC(0-inf) ([3]; 200 mg BID, Day 1, young (18-45 years) male) was 3210 ng·h/mL. For the same compound, the Cmax [3, 13] was 282 ng/mL, the AUC(0-t) [3, 13] was 1330 ng·h/mL and the Tmax [3, 13] was 6 h. For the same compound, the Cmax [3, 14] was 256 ng/mL, the AUC(0-t) [3, 14] was 1430 ng·h/mL and the Tmax [3, 14] was 2.5 h. For the same compound, the Cmax [3, 15] was 517 ng/mL, the AUC(0-t) [3, 15] was 2860 ng·h/mL and the Tmax [3, 15] was 4 h. The Cmax [3, 16] was 581 ng/mL, the AUC(0-t) [3, 16] was 4150 ng·h/mL and the Tmax [3, 16] was 4 h. The “ratio of Aβ42/Aβ40” value ([4]; CSF, treated patients (FIGS. 2, 3 and 4)) was “reduced”, the “CSF Aβ42 levels” value ([4]; treated patients (FIG. 1)) was “reduced” and the Tmax [5] was 5 h. The “crossing of the blood/brain barrier” value [6] was “crossed the blood/brain barrier”, the AUC(0-inf) ([7]; 50 mg single oral) was 1570 ng·h/mL and the AUC(0-t) ([7]; 50 mg single oral) was 1540 ng·h/mL. It also gave a Cmax ([7]; 50 mg single oral) of 469 ng/mL, a Tmax ([7]; 50 mg single oral) of 5 h and an AUC(0-inf) ([7]; 100 mg single oral) of 2870 ng·h/mL. It also gave an AUC(0-t) ([7]; 100 mg single oral) of 3130 ng·h/mL, a Cmax ([7]; 100 mg single oral) of 745 ng/mL and a Tmax ([7]; 100 mg single oral) of 5 h. For the same compound, the AUC(0-inf) ([7]; 150 mg single oral) was 4500 ng·h/mL, the AUC(0-t) ([7]; 150 mg single oral) was 5300 ng·h/mL and the Tmax ([7]; 150 mg single oral) was 5 h. The “AUC0-t greater in elderly subjects compared to young subjects” value ([8]; 200 mg dose, Tables 9 and 10) was “approximately 70%”, the “Cmax greater in elderly subjects compared to young subjects” value ([8]; 200 mg dose, Tables 9 and 10) was “approximately 70%” and the AUC(0-inf) [8, 17] was 1420 ng·h/mL. For the same compound, the Tmax [8, 17] was 5 h, the AUC(0-inf) [8, 18] was 2490 ng·h/mL and the Tmax [8, 18] was 5 h. The AUC(0-inf) [8, 19] was 4460 ng·h/mL, the Tmax [8, 19] was 5 h and the Tmax ([8]; 400 mg single oral, young (18-45 years) male) was 2 h. It also gave a Cmax [8, 20] of 410 ng/mL, an AUC(0-t) [8, 20] of 1390 ng·h/mL and a Cmax [8, 21] of 1090 ng/mL. For the same compound, the AUC(0-t) [8, 21] was 4880 ng·h/mL, the Cmax [8, 22] was 661 ng/mL and the AUC(0-t) [8, 22] was 2900 ng·h/mL. For the same compound, the Cmax [8, 23] was 904 ng/mL, the AUC(0-t) [8, 23] was 4000 ng·h/mL and the Cmax [8, 24] was 5370 ng/mL. For the same compound, the AUC(0-t) [8, 24] was 16000 ng·h/mL and the tolerability [9] was “better tolerated than the sodium salt form”.

With `NCCCS(=O)(=O)[O-].[Na+]` [3-amino-1-propanesulfonic acid, sodium salt] the “gastrointestinal symptoms (i.e. nausea and vomiting)” value [10] was “associated with gastrointestinal symptoms”.

From US20060257480A1, “Pharmaceutical formulations of amyloid inhibiting compounds” (priority 2005, published 2006)
